The target of test [1] is Calcium/calmodulin-dependent protein kinase type II subunit gamma (Homo sapiens) (UniProt Q13555). The test can be described thus: Selectivity interaction (KinomeScan (DiscoverX)) EUB0000595a CAMK2G. To be noted: at 10 µM.
For test [2], the target named is T1, Mitogen-activated protein kinase kinase kinase 5 (Homo sapiens) (UniProt Q99683).
T1 sequence (whole entry): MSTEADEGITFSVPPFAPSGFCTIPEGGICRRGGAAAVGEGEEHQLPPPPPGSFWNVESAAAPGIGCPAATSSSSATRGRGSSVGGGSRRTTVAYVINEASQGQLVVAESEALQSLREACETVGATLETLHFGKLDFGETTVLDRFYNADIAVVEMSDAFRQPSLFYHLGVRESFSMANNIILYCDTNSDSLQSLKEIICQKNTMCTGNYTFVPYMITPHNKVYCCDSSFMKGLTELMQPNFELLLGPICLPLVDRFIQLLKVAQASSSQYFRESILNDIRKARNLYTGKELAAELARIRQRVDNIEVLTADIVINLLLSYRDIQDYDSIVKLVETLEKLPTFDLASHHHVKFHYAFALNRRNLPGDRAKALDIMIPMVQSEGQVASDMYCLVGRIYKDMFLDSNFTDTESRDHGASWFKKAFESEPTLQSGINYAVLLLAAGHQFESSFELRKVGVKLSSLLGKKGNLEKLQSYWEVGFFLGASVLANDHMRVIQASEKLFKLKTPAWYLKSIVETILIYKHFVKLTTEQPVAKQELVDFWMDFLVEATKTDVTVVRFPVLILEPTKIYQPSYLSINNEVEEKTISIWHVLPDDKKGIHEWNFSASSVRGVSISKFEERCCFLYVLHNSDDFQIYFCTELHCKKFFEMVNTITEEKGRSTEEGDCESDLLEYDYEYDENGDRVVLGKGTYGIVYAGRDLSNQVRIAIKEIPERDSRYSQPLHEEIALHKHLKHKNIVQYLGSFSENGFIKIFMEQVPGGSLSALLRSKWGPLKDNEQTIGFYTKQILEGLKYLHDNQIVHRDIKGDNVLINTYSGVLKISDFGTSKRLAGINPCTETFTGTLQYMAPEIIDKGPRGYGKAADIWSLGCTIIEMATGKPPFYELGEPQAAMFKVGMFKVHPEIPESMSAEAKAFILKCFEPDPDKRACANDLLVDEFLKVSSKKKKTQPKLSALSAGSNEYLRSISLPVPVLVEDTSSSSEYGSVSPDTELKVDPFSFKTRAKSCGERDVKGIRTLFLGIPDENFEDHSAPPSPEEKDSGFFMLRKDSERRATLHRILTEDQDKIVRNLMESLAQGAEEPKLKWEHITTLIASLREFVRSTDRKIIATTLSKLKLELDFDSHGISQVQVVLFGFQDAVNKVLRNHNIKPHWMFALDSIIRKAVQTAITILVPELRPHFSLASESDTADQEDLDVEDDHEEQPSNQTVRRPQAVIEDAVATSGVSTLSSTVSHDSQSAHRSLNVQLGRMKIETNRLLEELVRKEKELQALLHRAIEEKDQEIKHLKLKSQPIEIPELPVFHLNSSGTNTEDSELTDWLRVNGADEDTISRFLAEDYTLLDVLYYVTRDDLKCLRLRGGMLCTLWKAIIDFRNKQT
The test can be described thus: Selectivity interaction (ActivX KiNativ screen (ex vivo kinase selectivity in human PBMCs)) EUB0001619a MAP3K5. Type of test: cell-based. To be noted: PBMC, at 1 µM.

Test [3] has as its target T2, Serine/threonine-protein kinase haspin (Homo sapiens) (UniProt Q8TF76).
T2 sequence (whole entry): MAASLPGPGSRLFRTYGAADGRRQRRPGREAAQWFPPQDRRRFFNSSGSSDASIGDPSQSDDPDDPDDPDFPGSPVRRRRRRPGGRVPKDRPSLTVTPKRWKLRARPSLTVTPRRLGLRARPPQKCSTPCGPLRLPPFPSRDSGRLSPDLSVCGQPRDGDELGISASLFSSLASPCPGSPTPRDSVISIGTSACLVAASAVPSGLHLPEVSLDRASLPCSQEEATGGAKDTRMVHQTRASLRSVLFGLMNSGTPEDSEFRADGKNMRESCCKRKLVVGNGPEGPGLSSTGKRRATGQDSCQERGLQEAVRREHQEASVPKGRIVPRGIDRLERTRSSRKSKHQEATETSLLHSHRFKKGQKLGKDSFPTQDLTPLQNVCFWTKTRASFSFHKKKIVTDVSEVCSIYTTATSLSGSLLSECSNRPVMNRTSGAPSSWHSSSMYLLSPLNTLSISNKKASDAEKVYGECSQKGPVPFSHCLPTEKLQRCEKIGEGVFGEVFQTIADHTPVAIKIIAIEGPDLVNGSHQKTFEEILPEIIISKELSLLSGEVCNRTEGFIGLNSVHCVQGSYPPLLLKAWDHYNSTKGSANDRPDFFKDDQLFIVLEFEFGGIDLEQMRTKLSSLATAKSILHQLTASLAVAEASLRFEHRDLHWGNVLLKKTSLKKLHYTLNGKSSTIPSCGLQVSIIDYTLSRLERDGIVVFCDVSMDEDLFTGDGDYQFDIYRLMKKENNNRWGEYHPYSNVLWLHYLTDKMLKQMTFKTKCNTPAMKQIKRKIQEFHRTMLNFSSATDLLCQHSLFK
Briefly: Selectivity interaction (KinomeScan (DiscoverX)) EUB0000695a GSG2. To be noted: at 100 nM.

Test [4] deals with Tyrosine-protein kinase ABL1 (Homo sapiens), P00519 [E255K]. The test can be described thus: (§1) Selectivity interaction (KinomeScan (DiscoverX)) EUB0000655a ABL1. To be noted: at 10 µM.
Test [5] deals with Tyrosine-protein kinase ABL1 (Homo sapiens), P00519 [Y253F]. The test is described as §1. To be noted: at 10 µM.
Test [6] deals with Tyrosine-protein kinase ABL1 (Homo sapiens), P00519 [M351T]. The test is described as §1. To be noted: at 10 µM.
Test [7] has as its system Tyrosine-protein kinase ABL1 (Homo sapiens), P00519 [F317I]. The description is as §1. To be noted: at 10 µM.
Test [8] deals with Tyrosine-protein kinase ABL1 (Homo sapiens), P00519 [Q252H]. The test is described as §1. To be noted: at 10 µM.
Test [9] concerns Tyrosine-protein kinase ABL1 (Homo sapiens), P00519 [F317L]. Described as §1. To be noted: at 10 µM.
The test system of test [10] is Tyrosine-protein kinase ABL1 (Homo sapiens), P00519 [H396P]. The description is as §1. To be noted: at 10 µM.
In test [11] the target is T3, Phosphorylase b kinase gamma catalytic chain, liver/testis isoform (Homo sapiens) (UniProt P15735).
T3 sequence (whole entry): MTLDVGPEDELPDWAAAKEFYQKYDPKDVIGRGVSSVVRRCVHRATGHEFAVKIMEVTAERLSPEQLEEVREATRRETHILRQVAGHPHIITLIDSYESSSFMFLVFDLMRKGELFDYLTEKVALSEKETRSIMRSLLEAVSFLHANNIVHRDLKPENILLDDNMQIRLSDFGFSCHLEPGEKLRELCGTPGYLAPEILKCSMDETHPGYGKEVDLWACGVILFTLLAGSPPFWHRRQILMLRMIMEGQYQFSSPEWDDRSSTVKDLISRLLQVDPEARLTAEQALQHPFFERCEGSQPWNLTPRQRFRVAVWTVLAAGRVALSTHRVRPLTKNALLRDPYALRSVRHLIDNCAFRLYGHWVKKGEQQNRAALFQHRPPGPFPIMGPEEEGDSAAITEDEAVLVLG
Briefly: Selectivity interaction (KinomeScan (DiscoverX)) EUB0000655a PHKG2. To be noted: at 10 µM.

Calcium/calmodulin-dependent protein kinase type II subunit gamma (Homo sapiens), sequence (Q13555 whole entry): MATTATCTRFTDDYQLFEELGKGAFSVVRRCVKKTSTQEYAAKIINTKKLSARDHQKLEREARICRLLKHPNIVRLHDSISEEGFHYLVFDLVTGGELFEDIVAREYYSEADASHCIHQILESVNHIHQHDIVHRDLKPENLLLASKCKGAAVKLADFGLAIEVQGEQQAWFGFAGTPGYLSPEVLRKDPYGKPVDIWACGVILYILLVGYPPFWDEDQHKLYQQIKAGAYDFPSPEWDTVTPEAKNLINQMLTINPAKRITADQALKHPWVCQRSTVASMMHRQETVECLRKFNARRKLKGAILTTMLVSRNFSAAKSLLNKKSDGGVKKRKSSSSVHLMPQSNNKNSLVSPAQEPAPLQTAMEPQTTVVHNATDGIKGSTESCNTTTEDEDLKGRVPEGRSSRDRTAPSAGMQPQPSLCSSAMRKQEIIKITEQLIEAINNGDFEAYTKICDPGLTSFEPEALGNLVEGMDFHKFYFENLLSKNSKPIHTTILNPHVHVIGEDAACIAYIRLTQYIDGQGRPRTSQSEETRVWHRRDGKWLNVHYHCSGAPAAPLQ

With `COCC(=O)NC/C=C/c1ccc2ncnc(Nc3ccc(Oc4ccc(C)nc4)c(C)c3)c2c1` [CP-724714], in test [1], the % of control stood at 94%.

In [2], `N#Cc1cccc(-c2c[nH]c3ncnc(N4CCOCC4)c23)c1` showed a % of inhibition of 21%.

Turning to `Cc1cc(F)c(C(=O)Nc2cccc(-c3nncn3C(C)C)n2)cc1-n1cnc(C2CC2)c1`, in test [3], the % of control stood at 100%.

Take `CN(C)CCOc1ccc(-c2nc(-c3ccncc3)c(-c3ccc4c(c3)CC/C4=N\O)[nH]2)cc1`: the % of control stood at 8.6% in [4]; 9.1% in test [5]; 11% in test [6]; 72% in test [7]; 3% in test [8]; 37% in test [9]. The % of control in test [10] was found to be 1.3%; in test [11] it was 100%.
